Test results reported in patent US8557737B2, “Methods of altering poppy characteristics” (priority 2005, dated 2013).

Columns and labels:
Type in all cases: in vivo, Papaver somniferum
poppy crops [1] = assay: Example 17: field trial, triasulfuron, mesosulfuron-methyl and metsulfuron-methyl at early run-up and mid-late run-up, morphine crop; details: Trt 5: COMPOUND 2 150 MG/HA + ACTIVATOR .125% V/V at ERU and M-LRU
Protocol: (§1) All trials were conducted on poppy crops. Seed was treated with Thiram (5.6 g of Thiram 800/kg seed) and Apron (4 g/kg) and sown at a rate of approximately 750 g/ha. Fertilisers were applied at sowing. Most commonly, either 50:50 lime:superphosphate/triple superphosphate at 125 kg/ha, or lime:superphosphate at 250 kg/ha, were mixed with seed and drilled at a depth of 15 mm. In the same operation, NPK (nitrogen:phosphorus:potassium), at various rates, was banded 75 mm below the seed, unless otherwise stated. All crops were subjected to herbicide sprays for weed control, fungicide sprays for disease control, insecticide sprays if appropriate and were irrigated as required.
(§2) All spray applications were made with a precision sprayer, using Silvan Lurmark flat-fan, low-drift nozzles (LD110-0015). Spray equipment was calibrated to deliver 153 L water/ha.
(§3) At harvest, a 2 m×4 m quadrat was placed in each plot (3 m×6 m, unless otherwise stated) and capsules hand-picked from this area. Capsules were broken up, seed and capsule material separated and weighed. Capsule moisture readings were taken with a moisture meter. Alkaloid yield data were calculated on Pesticide Research Manager (version 5 for Windows) using the formulae below. Briefly, capsule weight was adjusted for moisture to a dry weight, 5% of seed weight was added to this (this amount of capsule material regularly occurs in seed samples after processing) to give a capsule weight per plot. Seed weight was adjusted to 95% of crude weight. Straw weights were determined by multiplying dry capsule weight by 1.3 (estimated amount of stem material in a commercial harvest) and adjusted to 11% moisture. When Lontrel was applied to crops exact capsule and seed weight data were entered. Analyses of variance and a Multiple Range Test were performed on data using Pesticide Research Manager.
Trial to evaluate applications of triasulfuron, mesosulfuron-methyl and metsulfuron-methyl, in a morphine crop. Treatment sprays were applied to with crop at early run-up and mid-late run-up, respectively. Plant heights were measured on 6 weeks after last application and lodging was assessed at capsule harvest.

poppy crops [2] = assay: Example 16: field trial, metsulfuron-methyl, mesosulfuron-methyl and triasulfuron at row cover and ground cover/early run-up, morphine crop; details: Trt 5: COMPOUND 2 150 MG/HA + ACTIVATOR .125% V/V at RC and GC/ERU
Protocol: as §1, §2, §3
Trial to evaluate applications of metsulfuron-methyl (Compound 1), mesosulfuron-methyl (Compound 2) and triasulfuron (Compound 3), in a morphine crop. Treatment sprays were applied to crop at row cover and ground cover/early run-up, respectively. Plant heights were assessed 5 weeks after last application and lodging was assessed at capsule harvest.

poppy crops [3] = assay: Example 9: field trial, mesosulfuron-methyl and metsulfuron-methyl, morphine crop; details: for LODGING: assessed on the day of capsule harvest; for HEIGHT: measured at green capsule stage
Protocol: as §1, §2, §3
Trial to evaluate applications of mesosulfuron-methyl (Compound 2) and metsulfuron-methyl (Compound 1), in a morphine crop. Treatment sprays were applied to crop at ground cover, late run-up and early bud-emergence, respectively. Plant heights were measured at green capsule stage, and lodging assessed on the day of capsule harvest.

poppy crops [4] = assay: Example 18: field trial, triasulfuron, mesosulfuron-methyl and metsulfuron-methyl at row cover, mid run-up and early hook, morphine crop; details: Trt 5: COMPOUND 2 150 MG/HA + ACTIVATOR .125% V/V at RC, MRU and LRU
Protocol: as §1, §2, §3
Trial to evaluate applications of triasulfuron, mesosulfuron-methyl and metsulfuron-methyl, in a morphine crop. […] Plant heights were measured 5 weeks after last application and lodging at capsule harvest.

[5] = COMPOUND 2 390 MG/HA + ACTIVATOR .125 % V/V at GC and EBE
[6] = COMPOUND 2 390 MG/HA + ACTIVATOR .125 % V/V at GC, LRU and EBE

For `COC(=O)c1ccc(CNS(C)(=O)=O)cc1S(=O)(=O)NC(=O)Nc1nc(OC)cc(OC)n1` [Compound 2, mesosulfuron-methyl], the “CAPS/SEED RATIO” value (poppy crops [1]) was 2.315 days, the “CROP WEIGHT” value (poppy crops [1]) was 2.57 b t/ha and the MORPHINE (poppy crops [1]) was 41.97 b kg/ha. The SEED (poppy crops [1]) was 612 b kg/ha, the STRAW (poppy crops [1]) was 1910 b kg/ha and the “STRAW MORPHINE” value (poppy crops [1]) was 2.23 b %. The “PLANT HEIGHT” value (poppy crops [1]; 6 weeks after last application) was 104.0 b cm, the LODGING (poppy crops [1]; at capsule harvest) was 2.8 b % and the “CAPS/SEED RATIO” value (poppy crops [2]) was 0.825 c. For the same compound, the “CROP WEIGHT” value (poppy crops [2]) was 3.65 ab t/ha, the MORPHINE (poppy crops [2]) was 43.77 ab kg/ha and the SEED (poppy crops [2]) was 1671 b kg/ha. For the same compound, the STRAW (poppy crops [2]) was 1976 ab kg/ha, the “STRAW MORPHINE” value (poppy crops [2]) was 2.21 a % and the “PLANT HEIGHT” value (poppy crops [2]; 5 weeks after last application) was 101.6 b cm. For the same compound, the “CAPSULE/SEED RATIO” value (poppy crops [3]; [5]) was 2.084 b, the “CROP WEIGHT” value (poppy crops [3]; [5]) was 1.80 c t/ha and the MORPHINE (poppy crops [3]; [5]) was 26.41 b kg/ha. For the same compound, the SEED (poppy crops [3]; [5]) was 460 b kg/ha, the STRAW (poppy crops [3]; [5]) was 1342 c kg/ha and the “STRAW MORPHINE” value (poppy crops [3]; [5]) was 2.10 a %. The LODGING (poppy crops [3]; [5]) was 6.5 bc %, the HEIGHT (poppy crops [3]; [5]) was 96.0 ab cm and the “CAPSULE/SEED RATIO” value (poppy crops [3]; [6]) was 1.854 b. The “CROP WEIGHT” value (poppy crops [3]; [6]) was 1.16 d t/ha, the MORPHINE (poppy crops [3]; [6]) was 15.27 c kg/ha and the SEED (poppy crops [3]; [6]) was 336 b kg/ha. For the same compound, the STRAW (poppy crops [3]; [6]) was 827 d kg/ha, the “STRAW MORPHINE” value (poppy crops [3]; [6]) was 2.03 a % and the LODGING (poppy crops [3]; [6]) was 11.0 ab %. The HEIGHT (poppy crops [3]; [6]) was 89.3 b cm, the “CAPS/SEED RATIO” value (poppy crops [4]) was 1.071 b and the “CROP WEIGHT” value (poppy crops [4]) was 3.25 a t/ha. It also gave an MORPHINE (poppy crops [4]) of 42.83 b kg/ha, an SEED (poppy crops [4]) of 1281 b kg/ha and an STRAW (poppy crops [4]) of 1917 b kg/ha. The “STRAW MORPHINE” value (poppy crops [4]) was 2.23 b %, the “PLANT HEIGHT” value (poppy crops [4]; 5 weeks after last application) was 96.4 b cm and the LODGING (poppy crops [4]; at capsule harvest) was 2.8 a %.
